Measured values taken from patent publication US12419917B2, “Compositions and methods for treatment of conditions using fractionated honey” (NDAL MFG INC, priority 2021, dated 2025).

Tested on: SARS-CoV-2
Assay type: cell-based
Settings: 1-hour contact at 22 ± 2° C., cleanser 100%, ethanol 70%

CCO [Ethanol]
LRV (log reduction value) compared to the virus control (<1 log reduction not considered active): >4.3
Virus Titer (virus control titer 5.0, limit of detection 0.7): <0.7 log10 CCID50 of virus per 0.1 mL
